Measurements from patent publication US20080108645A1, “Dihydrotetrabenazines And Pharmaceutical Compositions Containing Them” (CAMBRIDGE LABORATORIES, (IRELAND), LTD., priority 2004, published 2008).

How the values were obtained:
Adrenergic α2A Receptor = target: T1, Adrenergic α2A Receptor (Homo sapiens, UniProt P08913); assay: Adrenergic α2A receptor radioligand binding; conditions: 10 μM; 1 nM [3H] MK-912
T1 construct: expressed in transfected cells; host or cells: insect Sf9 cells
T1 sequence (P08913 1-465): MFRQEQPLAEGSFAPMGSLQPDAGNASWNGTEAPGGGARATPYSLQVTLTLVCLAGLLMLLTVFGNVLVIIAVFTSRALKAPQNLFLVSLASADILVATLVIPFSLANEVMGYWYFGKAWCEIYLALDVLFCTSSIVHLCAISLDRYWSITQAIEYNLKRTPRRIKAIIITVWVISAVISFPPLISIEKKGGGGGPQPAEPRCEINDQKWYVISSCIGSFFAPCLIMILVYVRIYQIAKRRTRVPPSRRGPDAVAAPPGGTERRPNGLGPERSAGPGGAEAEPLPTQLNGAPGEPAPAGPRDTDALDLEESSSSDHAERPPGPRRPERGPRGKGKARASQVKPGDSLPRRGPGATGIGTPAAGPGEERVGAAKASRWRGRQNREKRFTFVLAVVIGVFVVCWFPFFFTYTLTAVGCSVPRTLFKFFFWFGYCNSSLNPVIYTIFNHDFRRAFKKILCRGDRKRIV
Description: (§1) (a) Adrenergic α2A Receptor: • Reference: S. Uhlen et al. J. Pharmacol. Exp. Ther., 271:1558-1565 (1994) • Source: Human recombinant insect Sf9 cells • Ligand: 1 nM [^3H] […] J. Pharmacol., 99:803-809, (1990) • Source: Wistar rat cerebral cortex • Ligand: 2 nM [3H]

Dopamine D2L Receptor = target: T2, Dopamine D2L Receptor (Homo sapiens, UniProt P14416); assay: Dopamine D2L receptor radioligand binding; conditions: 10 μM; 0.16 nM [3H] Spiperone
T2 construct: expressed in transfected cells; host or cells: CHO cells
Description: as §1

Caco-2 monolayer = conditions: Caco-2
Description: The assay relies on the ability of Caco-2 cells to differentiate into enterocytes when cultured on a microporous filter for a period of approximately 21 days. During the culture period, the Caco-2 cells undergo spontaneous morphological and biochemical changes, which produce a polarized monolayer with a well-defined brush border on the apical surface, as well as tight cellular junctions. Therefore, these cells may be used as an in vitro model for the analysis of drug permeability.
Absorption across the Caco-2 monolayer can be measured in two directions: apical-to-basolateral or basolateral-to-apical, by adding the compound to the apical or the basolateral chamber, respectively. At various time-points, samples are collected from the receiver-chamber for analysis for the rate of absorption as measured by the apparent permeability coefficient (Papp) across the monolayer.
The Papp value reflects a combination of the test article permeability through both transcellular (through cell membranes) and the paracellular (across the tight junctions between the cells) pathways. The relative contribution of these pathways depends upon the pKa, partition coefficient (log D), molecular radius, and charge of the test article at a given pH. Papp values can then be used to rank-order compounds for their permeability through Caco-2 monolayers.
Absorption was determined at pH 7.4 across cell monolayers in the apical-to-basolateral direction. Caco-2 cells used to estimate Papp values were grown for 26 days on Transwell inserts in 12-well plates. Monolayer integrity was verified before and after the absorption assay by the methods of transepithelial electrical resistance (Ohm-cm^2) and Lucifer Yellow.
On the day of the assay, the reference standards were diluted in Hank's balanced salt solution (HBSS), pH 7.4 to a final concentration of 50 μM. […] Dihydrotetrabenazine isomer samples were prepared at a concentration of 50 mM in DMSO. Each stock solution was further diluted in HBSS buffer (pH 7.4) to a final working concentration of 50 μM
The Caco-2 cell suspensions were prepared as follows. […] Once the cell density and viability were determined, Caco-2 cells were diluted in culture medium to a final working concentration of 2.0×10^5 cells/ml. The Caco-2 culture medium contained Dulbecco's Modified Eagle Medium, 10% fetal bovine serum, 100 μM non-essential amino acids, 100 U/ml penicillin and 100 μg/ml streptomycin.
Costar polycarbonate membranes (0.4 μm pore size) were pre-equilibrated with Caco-2 culture medium for 1 hour in a 37° C. water-jacketed incubator with 5% CO2. The content of the apical chamber was removed and replaced with 500 μl of Caco-2 cell suspension (200 000 cells/ml). Cells were further maintained in culture for 26 days in a 37° C. water-jacketed incubator with 5% CO2.
Prior to the assay, all monolayers were washed twice with HBSS and their transepithelial electrical resistance (TEER) was measured with a Millicell-ERS meter. TEER values obtained in the absence of cells were subtracted as background signal. Only monolayer with TEER values over 150 Ohm-cm^2 were used for the absorption assay experiment.
All absorption experiments were conducted in triplicate at pH 7.4. The rate of absorption of each reference standard and dihydrotetrabenazine test article was assessed in the apical-to-basolateral direction. Aliquots (100 μl) of each working solution (reference standards and test articles at 50 μM) were set aside at the beginning of the assay for the determination of the initial concentration (Co).
Absorption experiments were initiated by replacing the content of the donor chamber with 500 μl of Hanks Balanced Salt Solution containing test articles or reference compounds. Cells were returned to the CO2 incubator for the absorption assay. Samples of 100 μl were collected from the receiver and donor chambers after 1 hour and were used to determine the percentage of recovery.

Sigma σ1 Receptor = target: T3, Sigma σ1 Receptor (Homo sapiens, UniProt Q99720); assay: Sigma σ1 receptor radioligand binding; conditions: 10 μM; 8 nM [3H] Haloperidol
T3 construct: Source: Human jurkat cells; endogenous in cells; host or cells: Jurkat cells
Description: as §1

Sigma σ2 Receptor = target: T4, Sigma σ2 Receptor (Rattus norvegicus, UniProt Q5U3Y7); assay: Sigma σ2 receptor radioligand binding; parameters: species or system Wistar rat; conditions: 3 nM [3H] Ifenprodil
T4 construct: Source: Wistar rat brain; from tissue; host or cells: Wistar rat brain
T4 sequence (Q5U3Y7 1-176): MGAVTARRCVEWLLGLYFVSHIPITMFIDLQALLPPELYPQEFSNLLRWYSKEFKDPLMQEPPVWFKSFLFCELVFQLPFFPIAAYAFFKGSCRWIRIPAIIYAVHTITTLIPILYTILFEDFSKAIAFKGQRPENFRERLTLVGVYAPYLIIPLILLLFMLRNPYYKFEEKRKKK
Description: as §1

Adrenergic α2B Receptor = target: T5, Adrenergic α2B Receptor (Homo sapiens, UniProt P18089); assay: Adrenergic α2B receptor radioligand binding; conditions: 10 μM; 2.5 nM [3H] Rauwolscine
T5 construct: expressed in transfected cells; host or cells: CHO-K1 cells
T5 sequence (P18089 1-450): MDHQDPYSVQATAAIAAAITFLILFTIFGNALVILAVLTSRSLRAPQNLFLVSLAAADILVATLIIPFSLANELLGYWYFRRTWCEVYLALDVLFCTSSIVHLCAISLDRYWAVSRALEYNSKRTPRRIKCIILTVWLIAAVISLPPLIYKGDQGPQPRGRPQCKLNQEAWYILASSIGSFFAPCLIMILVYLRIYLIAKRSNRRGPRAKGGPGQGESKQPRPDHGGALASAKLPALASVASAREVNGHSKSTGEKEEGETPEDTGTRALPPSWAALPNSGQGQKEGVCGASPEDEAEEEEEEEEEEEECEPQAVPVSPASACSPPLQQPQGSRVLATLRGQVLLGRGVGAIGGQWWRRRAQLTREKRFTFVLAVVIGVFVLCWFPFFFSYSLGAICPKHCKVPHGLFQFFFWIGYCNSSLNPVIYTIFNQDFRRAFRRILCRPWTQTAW
Description: as §1

T3 sequence (Q99720 whole entry): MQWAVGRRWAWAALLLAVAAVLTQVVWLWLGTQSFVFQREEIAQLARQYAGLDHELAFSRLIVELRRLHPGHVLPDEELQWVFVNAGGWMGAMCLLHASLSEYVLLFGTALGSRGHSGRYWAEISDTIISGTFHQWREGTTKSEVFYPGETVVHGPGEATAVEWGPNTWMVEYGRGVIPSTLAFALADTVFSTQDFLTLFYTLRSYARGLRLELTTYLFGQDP
T2 sequence (P14416 whole entry): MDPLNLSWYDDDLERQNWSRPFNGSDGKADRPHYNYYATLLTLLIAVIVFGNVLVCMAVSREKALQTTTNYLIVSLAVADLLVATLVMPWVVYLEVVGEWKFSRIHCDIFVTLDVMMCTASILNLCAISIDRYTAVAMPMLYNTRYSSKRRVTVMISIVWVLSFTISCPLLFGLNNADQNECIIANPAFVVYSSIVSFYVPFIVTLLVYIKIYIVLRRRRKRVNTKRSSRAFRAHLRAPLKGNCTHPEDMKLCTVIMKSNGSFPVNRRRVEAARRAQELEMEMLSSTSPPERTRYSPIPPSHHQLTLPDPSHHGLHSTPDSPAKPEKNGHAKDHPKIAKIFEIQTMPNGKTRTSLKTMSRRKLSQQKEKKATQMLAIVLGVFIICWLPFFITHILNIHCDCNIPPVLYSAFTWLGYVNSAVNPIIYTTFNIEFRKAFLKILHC

| SMILES | Percentage Inhibition of Specific Binding, α2A Receptor (Adrenergic α2A Receptor) | Percentage Inhibition of Specific Binding, D2L Receptor (Dopamine D2L Receptor) | permeability in the Caco-2 model (in words) (Caco-2 monolayer) | Percentage Inhibition of Specific Binding, σ1 Receptor (Sigma σ1 Receptor) | inhibition at 10 µM (Sigma σ2 Receptor; read-out: Percentage Inhibition of Specific Binding, σ2 Receptor) | Percentage Inhibition of Specific Binding, α2B Receptor (Adrenergic α2B Receptor) | Percentage Inhibition of Specific Binding, σ2 Receptor (Sigma σ2 Receptor; 10 μM) |
| --- | --- | --- | --- | --- | --- | --- | --- |
| COc1cc2c(cc1OC)[C@H]1C[C@@H](O)[C@@H](CC(C)C)CN1CC2 (single isomer, unassigned) [Isomer C, 3,11b-cis-dihydrotetrabenazine] | 13% | −14% | high permeability | 59% | 61% | −7% |  |
| COc1cc2c(cc1OC)[C@H]1C[C@H](O)[C@@H](CC(C)C)CN1CC2 (single isomer, unassigned) [Isomer B, 3,11b-cis-dihydrotetrabenazine] | 12% | 16% | medium permeability | 82% |  | 14% | 64% |
